Source: patent publication US7217730B2, “Method for the use of pyranoindole derivatives to treat infection with Hepatitis C virus” (Wyeth, priority 2002, dated 2007)
pIC50: −log10 of the molar value. Read-outs that look alike come from different tables or passages of the source.

Target: T1, NS5B from the BK strain (genotype 1b) (Hepatitis C virus genotype 1b, UniProt P26663)
T1 construct: NS5B from the BK strain (genotype 1b) is expressed in E. coli as a protein in which the 21 C-terminal amino acids are replaced; made in house; host or cells: E. coli
T1 sequence (P26663 2420-2989): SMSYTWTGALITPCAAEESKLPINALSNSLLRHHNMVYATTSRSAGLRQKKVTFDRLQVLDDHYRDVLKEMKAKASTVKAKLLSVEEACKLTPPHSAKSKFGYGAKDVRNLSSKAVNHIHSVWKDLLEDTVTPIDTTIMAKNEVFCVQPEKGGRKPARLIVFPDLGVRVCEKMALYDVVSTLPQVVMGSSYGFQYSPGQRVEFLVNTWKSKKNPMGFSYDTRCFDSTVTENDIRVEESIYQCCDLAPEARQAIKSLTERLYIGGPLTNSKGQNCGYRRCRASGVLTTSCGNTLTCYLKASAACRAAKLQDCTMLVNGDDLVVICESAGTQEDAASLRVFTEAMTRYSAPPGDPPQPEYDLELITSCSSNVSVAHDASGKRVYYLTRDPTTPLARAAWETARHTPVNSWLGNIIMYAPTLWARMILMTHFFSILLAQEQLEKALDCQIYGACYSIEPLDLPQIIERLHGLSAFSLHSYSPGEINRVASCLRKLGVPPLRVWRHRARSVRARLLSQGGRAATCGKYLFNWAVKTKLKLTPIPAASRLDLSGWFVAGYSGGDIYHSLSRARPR
Experiment: Hepatitis C polymerase inhibition, NS5B BK strain, 33P-GTP filter assay
Format: biochemical
Settings: for inhibition at 20 µM: read-out: HCV pol % inh at 20 μM; for pIC50: NS5B BK strain, read-out: HCV pol BK IC50
Summary of the method: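 Radiolabelled RNA synthesis was measured by filter capture and scintillation counting after EDTA stop. His-tagged, C-terminally truncated (Δ21) genotype 1b BK NS5B from E. coli, pre-exposed to compound for 15 min, copied a self-primed RNA template (~3 nM) with α-[33P]-GTP for 2 h at room temperature.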

Row | SMILES | inhibition at 20 µM (Table 1A, 20 μM compound) | pIC50 (Table 1A) | inhibition at 20 µM
1 | CC(C)C1(CC(=O)O)OCCc2c1[nH]c1c(Br)cccc21 (stereo not drawn) [Example 83, (8-bromo-1-isopropyl-1,3,4,9-tetrahydropyrano[3,4-b]indol-1-yl)acetic acid] | 41% | < 4.70 | –
2 | CCCCC1(CC(=O)O)OCCc2c1[nH]c1c(Br)cccc21 (stereo not drawn) [Example 84, (8-bromo-1-butyl-1,3,4,9-tetrahydropyrano[3,4-b]indol-1-yl)acetic acid] | 46% | 4.71 | –
3 | C/C=C/CCC1(CC(=O)O)OCCc2c1[nH]c1c(Br)cccc21 (stereo not drawn) [Example 85, {8-bromo-1-[(3E)-pent-3-enyl]-1,3,4,9-tetrahydropyrano[3,4-b]indol-1-yl}acetic acid] | 18% | < 4.70 | –
4 | O=C(O)CC1(c2ccccc2)OCCc2c1[nH]c1c(Br)cccc21 (stereo not drawn) [Example 86, (8-bromo-1-phenyl-1,3,4,9-tetrahydropyrano[3,4-b]indol-1-yl)acetic acid] | 20% | < 4.70 | –
5 | O=C(O)CC1(c2ccc(C(=O)O)cc2)OCCc2c1[nH]c1c(Br)cccc21 (stereo not drawn) [Example 87, 4-[8-bromo-1-(carboxymethyl)-1,3,4,9-tetrahydropyrano[3,4-b]indol-1-yl]benzoic acid] | 42% | < 4.70 | –
6 | O=C(O)CC1(c2ccoc2)OCCc2c1[nH]c1c(Br)cccc21 (stereo not drawn) [Example 88, [8-bromo-1-(3-furyl)-1,3,4,9-tetrahydropyrano[3,4-b]indol-1-yl]acetic acid] | 30% | < 4.70 | –
7 | CCCC1(CC(=O)O)OCCc2c1[nH]c1c(-c3ccccc3)cccc21 (stereo not drawn) [Example 89, (8-phenyl-1-propyl-1,3,4,9-tetrahydropyrano[3,4-b]indol-1-yl)acetic acid] | 36% | < 4.70 | –
8 | CCCC1(CC(=O)O)OCCc2c1[nH]c1c(-c3ccc(C)cc3)cccc21 (stereo not drawn) [Example 90, [8-(4-methylphenyl)-1-propyl-1,3,4,9-tetrahydropyrano[3,4-b]indol-1-yl]acetic acid] | 2% | < 4.70 | –
9 | CCCC1(CC(=O)O)OCCc2c1[nH]c1c(-c3ccc(OC)cc3)cccc21 (stereo not drawn) [Example 91, [8-(4-methoxyphenyl)-1-propyl-1,3,4,9-tetrahydropyrano[3,4-b]indol-1-yl]acetic acid] | < 5% | < 4.70 | –
10 | CCCC1(CC(=O)O)OCCc2c1[nH]c1c(-c3ccc(Cl)cc3)cccc21 (stereo not drawn) [Example 92, [8-(4-chlorophenyl)-1-propyl-1,3,4,9-tetrahydropyrano[3,4-b]indol-1-yl]acetic acid] | 35% | < 4.70 | –
11 | CCCC1(CC(=O)O)OCCc2c1[nH]c1c(-c3ccc(Cl)cc3Cl)cccc21 (stereo not drawn) [Example 93, [8-(2,4-dichlorophenyl)-1-propyl-1,3,4,9-tetrahydropyrano[3,4-b]indol-1-yl]acetic acid] | 64% | < 4.70 | –
12 | CCCC1(CC(=O)O)OCCc2c1[nH]c1c(-c3ccc(C(F)(F)F)cc3)cccc21 (stereo not drawn) [Example 94, {1-propyl-8-[4-(trifluoromethyl)phenyl]-1,3,4,9-tetrahydropyrano[3,4-b]indol-1-yl}acetic acid] | 33% | < 4.70 | –
13 | CCCC1(CC(=O)O)OCCc2c1[nH]c1c(-c3cccc(Br)c3)cccc21 (stereo not drawn) [Example 96, [8-(3-bromophenyl)-1-propyl-1,3,4,9-tetrahydropyrano[3,4-b]indol-1-yl]acetic acid] | 37% | < 4.70 | –
14 | CCCC1(CC(=O)O)OCCc2c1[nH]c1c(-c3cccc(N)c3)cccc21 (stereo not drawn) [Example 97, [8-(3-aminophenyl)-1-propyl-1,3,4,9-tetrahydropyrano[3,4-b]indol-1-yl]acetic acid] | 21% | < 4.70 | –
15 | CCCC1(CC(=O)O)OCCc2c1[nH]c1c(C#N)cccc21 (stereo not drawn) [Example 98, (8-cyano-1-propyl-1,3,4,9-tetrahydropyrano[3,4-b]indol-1-yl)acetic acid] | 44% | < 4.70 | –
16 | CC1(CC(=O)O)OCCc2c1[nH]c1c(Cl)cc(Cl)cc21 (stereo not drawn) [Example 99, (6,8-dichloro-1-methyl-1,3,4,9-tetrahydropyrano[3,4-b]indol-1-yl)acetic acid] | 32% | < 4.70 | –
17 | CCC1(CC(=O)O)OCCc2c1[nH]c1c(Cl)cc(Cl)cc21 (stereo not drawn) [Example 100, (6,8-dichloro-1-ethyl-1,3,4,9-tetrahydropyrano[3,4-b]indol-1-yl)acetic acid] | 54% | < 4.70 | –
18 | CCCC1(CC(=O)O)OCCc2c1[nH]c1c(Cl)cc(Cl)cc21 (stereo not drawn) [Example 101, (6,8-dichloro-1-propyl-1,3,4,9-tetrahydropyrano[3,4-b]indol-1-yl)acetic acid] | 89% | 5.82 | –

Row | SMILES | inhibition at 20 µM (Table 1A, 20 μM compound) | pIC50 (Table 1A) | inhibition at 20 µM
19 | CC(C)C1(CC(=O)O)OCCc2c1[nH]c1c(Cl)cc(Cl)cc21 (stereo not drawn) [Example 102, (6,8-dichloro-1-isopropyl-1,3,4,9-tetrahydropyrano[3,4-b]indol-1-yl)acetic acid] | 51% | 4.66 | –
20 | CCCCC1(CC(=O)O)OCCc2c1[nH]c1c(Cl)cc(Cl)cc21 (stereo not drawn) [Example 103, (1-butyl-6,8-dichloro-1,3,4,9-tetrahydropyrano[3,4-b]indol-1-yl)acetic acid] | 60% | 4.84 | –
21 | C/C=C/CCC1(CC(=O)O)OCCc2c1[nH]c1c(Cl)cc(Cl)cc21 (stereo not drawn) [Example 104, {6,8-dichloro-1-[(3E)-pent-3-enyl]-1,3,4,9-tetrahydropyrano[3,4-b]indol-1-yl}acetic acid] | < 5% | < 4.70 | –
22 | O=C(O)CC1(c2ccccc2)OCCc2c1[nH]c1c(Cl)cc(Cl)cc21 (stereo not drawn) [Example 105, (6,8-dichloro-1-phenyl-1,3,4,9-tetrahydropyrano[3,4-b]indol-1-yl)acetic acid] | 57% | < 5.30 | –
23 | O=C(O)CC1(c2ccc(C(=O)O)cc2)OCCc2c1[nH]c1c(Cl)cc(Cl)cc21 (stereo not drawn) [Example 106, 4-[1-(carboxymethyl)-6,8-dichloro-1,3,4,9-tetrahydropyrano[3,4-b]indol-1-yl]benzoic acid] | 71% | 5.64 | –
24 | CC1(CC(=O)O)OCCc2c1[nH]c1ccc(Cl)c(Cl)c21 (stereo not drawn) [Example 107, (5,6-dichloro-1-methyl-1,3,4,9-tetrahydropyrano[3,4-b]indol-1-yl)acetic acid] | 50% | 4.72 | –
25 | O=C(O)CC1(c2ccc(C(=O)O)cc2)OCCc2c1[nH]c1ccc(Cl)c(Cl)c21 (stereo not drawn) [Example 113, 4-[1-(carboxymethyl)-5,6-dichloro-1,3,4,9-tetrahydropyrano[3,4-b]indol-1-yl]benzoic acid] | – | 6.59 | 35%
26 | CC1(CC(=O)O)OCCc2c1[nH]c1cc(Cl)cc(Cl)c21 (stereo not drawn) [Example 114, (5,7-dichloro-1-methyl-1,3,4,9-tetrahydropyrano[3,4-b]indol-1-yl)acetic acid] | 57% | < 4.70 | –
27 | CC1(CC(=O)O)OCCc2c1[nH]c1c(C(F)(F)F)cccc21 (stereo not drawn) [Example 115, [1-methyl-8-(trifluoromethyl)-1,3,4,9-tetrahydropyrano[3,4-b]indol-1-yl]acetic acid] | 40% | < 4.70 | –
28 | CCC1(CC(=O)O)OCCc2c1[nH]c1c(C(F)(F)F)cccc21 (stereo not drawn) [Example 116, [1-ethyl-8-(trifluoromethyl)-1,3,4,9-tetrahydropyrano[3,4-b]indol-1-yl]acetic acid] | 34% | < 4.70 | –
29 | CCCC1(CC(=O)O)OCCc2c1[nH]c1c(C(F)(F)F)cccc21 (stereo not drawn) [Example 117, [1-propyl-8-(trifluoromethyl)-1,3,4,9-tetrahydropyrano[3,4-b]indol-1-yl]acetic acid] | 39% | 5.02 | –
30 | CC(C)C1(CC(=O)O)OCCc2c1[nH]c1c(C(F)(F)F)cccc21 (stereo not drawn) [Example 118, [1-isopropyl-8-(trifluoromethyl)-1,3,4,9-tetrahydropyrano[3,4-b]indol-1-yl]acetic acid] | 10% | < 4.70 | –
31 | CCCCC1(CC(=O)O)OCCc2c1[nH]c1c(C(F)(F)F)cccc21 (stereo not drawn) [Example 119, [1-butyl-8-(trifluoromethyl)-1,3,4,9-tetrahydropyrano[3,4-b]indol-1-yl]acetic acid] | 31% | < 4.70 | –
32 | C/C=C/CCC1(CC(=O)O)OCCc2c1[nH]c1c(C(F)(F)F)cccc21 (stereo not drawn) [Example 120, [1-[(3E)-pent-3-enyl]-8-(trifluoromethyl)-1,3,4,9-tetrahydropyrano[3,4-b]indol-1-yl]acetic acid] | 33% | < 4.70 | –
33 | O=C(O)CC1(c2ccccc2)OCCc2c1[nH]c1c(C(F)(F)F)cccc21 (stereo not drawn) [Example 121, [1-phenyl-8-(trifluoromethyl)-1,3,4,9-tetrahydropyrano[3,4-b]indol-1-yl]acetic acid] | < 5% | < 4.70 | –
34 | CC1(CC(=O)O)OCCc2c1[nH]c1c(F)ccc(F)c21 (stereo not drawn) [Example 122, (5,8-difluoro-1-methyl-1,3,4,9-tetrahydropyrano[3,4-b]indol-1-yl)acetic acid] | 5% | < 4.70 | –
35 | CCC1(CC(=O)O)OCCc2c1[nH]c1c(F)ccc(F)c21 (stereo not drawn) [Example 123, (1-ethyl-5,8-difluoro-1,3,4,9-tetrahydro-pyrano[3,4-b]indol-1-yl)acetic acid] | 51% | < 4.70 | –
36 | CCCC1(CC(=O)O)OCCc2c1[nH]c1c(F)ccc(F)c21 (stereo not drawn) [Example 124, (5,8-difluoro-1-propyl-1,3,4,9-tetrahydro-pyrano[3,4-b]indol-1-yl)acetic acid] | 61% | 5.17 | –
